These results are taken from publication PMC7366380, “Discovery of a Potent and Selective Covalent Inhibitor and Activity-Based Probe for the Deubiquitylating Enzyme UCHL1, with Antifibrotic Activity” (Journal of the American Chemical Society, 2020).

Structures are written as SMILES. Values joined by “and” are separate entries in the source; they are usually repeats but may differ in a detail not shown here. Identical values can stand only once. Bounds are passed on as bounds.

For assay [1], the target named is T1, USP28 (Homo sapiens, UniProt Q96RU2).
T1 sequence (Q96RU2 1-1077): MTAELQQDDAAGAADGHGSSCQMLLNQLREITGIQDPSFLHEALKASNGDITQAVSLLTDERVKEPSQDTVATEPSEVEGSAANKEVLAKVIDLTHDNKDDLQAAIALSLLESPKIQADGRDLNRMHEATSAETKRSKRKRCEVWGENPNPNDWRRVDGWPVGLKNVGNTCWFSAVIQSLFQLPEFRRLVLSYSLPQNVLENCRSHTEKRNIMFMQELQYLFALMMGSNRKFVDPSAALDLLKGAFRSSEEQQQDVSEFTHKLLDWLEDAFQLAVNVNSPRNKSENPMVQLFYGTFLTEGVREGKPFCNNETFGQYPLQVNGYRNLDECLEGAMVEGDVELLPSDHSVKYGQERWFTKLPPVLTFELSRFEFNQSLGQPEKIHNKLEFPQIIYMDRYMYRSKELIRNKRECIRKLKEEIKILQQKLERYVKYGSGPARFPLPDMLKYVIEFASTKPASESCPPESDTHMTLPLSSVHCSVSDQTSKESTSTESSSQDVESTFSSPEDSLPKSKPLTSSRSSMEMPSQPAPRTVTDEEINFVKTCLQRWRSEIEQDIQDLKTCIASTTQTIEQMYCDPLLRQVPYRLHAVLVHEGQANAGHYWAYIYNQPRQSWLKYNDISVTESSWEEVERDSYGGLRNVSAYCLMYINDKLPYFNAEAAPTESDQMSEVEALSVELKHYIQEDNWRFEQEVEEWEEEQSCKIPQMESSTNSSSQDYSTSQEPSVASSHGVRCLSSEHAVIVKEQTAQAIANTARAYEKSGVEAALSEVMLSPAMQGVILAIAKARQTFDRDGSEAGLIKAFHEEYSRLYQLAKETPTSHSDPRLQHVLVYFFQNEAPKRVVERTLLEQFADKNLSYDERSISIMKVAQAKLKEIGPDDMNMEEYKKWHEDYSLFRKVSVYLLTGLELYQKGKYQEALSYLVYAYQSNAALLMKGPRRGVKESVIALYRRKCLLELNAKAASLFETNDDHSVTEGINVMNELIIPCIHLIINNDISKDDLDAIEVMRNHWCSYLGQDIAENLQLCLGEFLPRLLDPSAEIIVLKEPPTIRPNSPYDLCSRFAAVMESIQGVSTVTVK
Briefly: Biochemical DUB selectivity profiling assay: USP28. To be noted: Ub-Lys-TAMRA 50 nM, buffer B; read-out: Biochemical IC50 range, USP28. As for the experimental part:
DUB Assay Substrate Substrate
Buffer Concentration (nM) […]
Sepharose® 4B resin (GE Healthcare).
10 kDa molecular weight cut-off (MWCO)).
Fractions containing protein
Protein concentration was […]
reaction volume of 21 μL. […]
compound (final concentration 5 nM).
IC50 values were determined
Biochemical DUB selectivity profiling assays […]
in 40 µL total reaction volume.

The target of assay [2] is T2, UCHL1 (Homo sapiens, UniProt P09936).
T2 sequence (P09936 1-223): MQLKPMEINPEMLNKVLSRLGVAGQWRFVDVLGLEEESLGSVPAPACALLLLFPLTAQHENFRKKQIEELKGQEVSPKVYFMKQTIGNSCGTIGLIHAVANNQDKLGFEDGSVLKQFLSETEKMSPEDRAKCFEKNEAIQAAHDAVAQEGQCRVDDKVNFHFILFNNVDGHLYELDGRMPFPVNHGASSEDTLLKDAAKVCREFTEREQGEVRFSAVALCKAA
Briefly: In-cell proteome-wide competitive ABPP (quantitative chemical proteomics), HEK293: UCHL1. To be noted: for Log2 reporter intensity values: UCHL1: DMSO substract (FC); for Log2 reporter intensity values: UCHL1 / Log2 reporter intensity values: replicates A-C; for UCHL1 response in proteome-wide competitive ABPP: HEK293, compound 60 min, then 2 (20 nM) 10 min; for Log2 reporter intensity values: UCHL1, DMSO subtracted.

The target of assay [3] is T3, USP30 (Homo sapiens, UniProt Q70CQ3).
T3 sequence (Q70CQ3 1-517): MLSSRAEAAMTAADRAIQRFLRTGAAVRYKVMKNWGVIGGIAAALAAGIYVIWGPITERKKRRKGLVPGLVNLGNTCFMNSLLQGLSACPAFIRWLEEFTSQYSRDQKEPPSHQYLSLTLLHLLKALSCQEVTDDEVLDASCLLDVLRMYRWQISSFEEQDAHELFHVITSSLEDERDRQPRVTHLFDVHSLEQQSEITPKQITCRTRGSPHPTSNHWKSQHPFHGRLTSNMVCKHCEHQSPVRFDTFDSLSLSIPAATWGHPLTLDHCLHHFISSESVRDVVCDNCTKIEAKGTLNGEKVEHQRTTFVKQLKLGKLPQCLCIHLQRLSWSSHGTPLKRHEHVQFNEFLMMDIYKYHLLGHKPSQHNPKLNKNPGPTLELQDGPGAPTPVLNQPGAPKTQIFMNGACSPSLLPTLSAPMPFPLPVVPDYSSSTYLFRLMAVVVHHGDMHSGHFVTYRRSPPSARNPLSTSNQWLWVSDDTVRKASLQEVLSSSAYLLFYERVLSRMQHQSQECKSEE
The assay is described as follows: biochemical.

The target in assay [4] is T4, UCHL5 (Homo sapiens, UniProt Q9Y5K5).
T4 sequence (Q9Y5K5 1-329): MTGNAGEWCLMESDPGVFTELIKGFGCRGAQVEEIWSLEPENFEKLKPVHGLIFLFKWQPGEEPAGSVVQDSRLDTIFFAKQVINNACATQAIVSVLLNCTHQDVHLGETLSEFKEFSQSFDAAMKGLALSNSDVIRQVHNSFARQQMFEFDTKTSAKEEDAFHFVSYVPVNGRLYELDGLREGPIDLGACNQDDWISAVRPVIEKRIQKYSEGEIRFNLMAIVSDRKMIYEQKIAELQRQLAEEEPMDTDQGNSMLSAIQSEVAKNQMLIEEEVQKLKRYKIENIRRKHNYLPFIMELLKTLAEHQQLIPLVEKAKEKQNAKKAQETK
Briefly: biochemical.

The target of assay [5] is T5, UCHL3 (Homo sapiens, UniProt P15374).
T5 sequence (P15374 1-230): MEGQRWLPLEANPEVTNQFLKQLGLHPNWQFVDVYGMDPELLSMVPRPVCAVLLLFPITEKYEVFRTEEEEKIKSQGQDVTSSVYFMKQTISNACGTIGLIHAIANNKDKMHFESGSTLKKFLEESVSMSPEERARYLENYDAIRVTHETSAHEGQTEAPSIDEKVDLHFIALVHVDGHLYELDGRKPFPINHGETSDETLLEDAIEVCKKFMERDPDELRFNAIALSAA
The assay is described as follows: In-cell proteome-wide competitive ABPP, HEK293: UCHL3. To be noted: for Log2 reporter intensity values: UCHL3: DMSO substract (FC); for Log2 reporter intensity values: UCHL3 / Log2 reporter intensity values: replicates A-C; for Log2 reporter intensity values: UCHL3, DMSO subtracted.

Where [6] appears, read: 1 at 1 μM, competition with ABP 2.
Where [7] appears, read: 1 at 4 μM, competition with ABP 2.
The mark [8] stands for this setting: 3 at 1 μM, competition with ABP 2.
Where [9] appears, read: 3 at 4 μM, competition with ABP 2.

Take `N#CN1CCC[C@H]1C(=O)N1CCc2c(-c3c[nH]c4ncccc34)cccc21` [Compound 1]: the values for the IC50 in assay [1], in assay [3] and in assay [4] were over 10 µM, 1 to 10 µM and over 10 µM, respectively. In addition, the “Log2 reporter intensity values: UCHL1” value was 1.266 and 1.307 and 1.157 in assay [2] (setting [6]); 0.9345 and 0.8874 and 0.9379 in assay [2] (setting [7]). For the same molecule, the “UCHL1 response in proteome-wide competitive ABPP” value in assay [2] is given as “responds strongly”. Moreover, the “Log2 reporter intensity values” is 0.2661 and 0.3067 and 0.157 in assay [2] (1_1 μM); -0.06576 and -0.1128 and -0.06231 in assay [2] (1_4 μM); 0.3407 and 0.3862 and 0.2107 in assay [2] (1 at 1 μM); -0.09779 and -0.1723 and -0.09247 in assay [2] (1 at 4 μM); -0.1178 and 0.3024 and -0.7296 in assay [5] (1_1 μM); -0.234 and -0.284 and -0.08483 in assay [5] (1_4 μM). In addition, the “Log2 reporter intensity values” in assay [5] (1 at 1 μM) is -0.1675 and 0.3902 and -1.8434; in assay [5] (1 at 4 μM), -0.3692 and -0.4654 and -0.115. The “Log2 reporter intensity values: UCHL3” value in assay [5] (setting [6]) was 0.8904 and 1.311 and 0.2787; in assay [5] (setting [7]), 0.7742 and 0.7243 and 0.9234. Moreover, in assay [5] (HEK293, compound 60 min, then 2 (20 nM) 10 min), the “UCHL3 response in proteome-wide competitive ABPP” value is on record as “small response”.

For the molecule `C#Cc1cnc2[nH]cc(-c3cccc4c3CCN4C(=O)[C@@H]3CCCN3C#N)c2c1` [Compound 2], the IC50 in assay [1] is over 10 µM. For the same molecule, in assay [2] (20 nM ABP 2 alone), the “Log2 reporter intensity values: UCHL1” value is 6.229 and 5.741 and 6.184. For the same molecule, the “Log2 reporter intensity values” is 2.639 and 2.521 and 2.629 and 5.2291 and 4.741 and 5.184 in assay [2] (20 nM ABP 2); 1.005 and 0.7277 and 0.6472 and 0.9988 and 0.6478 and 0.5579 in assay [5] (20 nM ABP 2). The “Log2 reporter intensity values: UCHL3” value in assay [5] (20 nM ABP 2 alone) was 2.007 and 1.656 and 1.566.

Regarding `N#CN1CCC[C@@H]1C(=O)N1CCc2c(-c3c[nH]c4ncccc34)cccc21` [Compound 3], the “Log2 reporter intensity values: UCHL1” value in assay [2] (setting [8]) was 5.152 and 5.416 and 5.469; in assay [2] (setting [9]), 5.424 and 5.76 and 5.633. Moreover, the “UCHL1 response in proteome-wide competitive ABPP” value in assay [2] was “does not respond”. Besides, the “Log2 reporter intensity values” in assay [2] (3_1 μM) was 4.152 and 4.416 and 4.468; in assay [2] (3_4 μM) it was 4.423 and 4.76 and 4.632; in assay [2] (3 at 1 μM) it was 2.365 and 2.437 and 2.451; in assay [2] (3 at 4 μM), 2.439 and 2.526 and 2.494; in assay [5] (3_1 μM), 0.4924 and 0.5226 and 0.8806; in assay [5] (3_4 μM) it was 0.5004 and 0.3501 and 0.6732. The “Log2 reporter intensity values” in assay [5] (3 at 1 μM) was 0.5856 and 0.6143 and 0.9175; in assay [5] (3 at 4 μM) it was 0.5932 and 0.4418 and 0.7497. Also, the IC50 in assay [3] and in assay [4] was over 10 µM throughout. Moreover, the “Log2 reporter intensity values: UCHL3” value in assay [5] (setting [8]) was 1.501 and 1.531 and 1.889; in assay [5] (setting [9]), 1.509 and 1.358 and 1.681.

Take `CC(=O)O/N=C1\C(=O)N(Cc2cc(Cl)ccc2Cl)c2ccc(Cl)cc21` [LDN-57444, reference compound]: the 50% inhibitory concentration (IC50) in assay [1], in assay [3] and in assay [4] was over 10 µM in each case.

With `CC(=O)O/N=C1\C(=O)N(Cc2cc(Cl)ccc2Cl)c2ccc(Cl)cc21` [LDN], the “Log2 reporter intensity values: UCHL3” value was 1.511 and 1.383 and 1.619 in assay [5] (LDN at 5 μM, competition with ABP 2); 1.505 and 1.419 and 1.696 in assay [5] (LDN at 25 μM, competition with ABP 2). Moreover, the “Log2 reporter intensity values” is 0.5958 and 0.4677 and 0.6949 in assay [5] (LDN at 5 μM); 0.5899 and 0.5052 and 0.7625 in assay [5] (LDN at 25 μM); 0.5031 and 0.3746 and 0.6105 in assay [5] (LDN_5 μM); 0.4969 and 0.4111 and 0.6882 in assay [5] (LDN_25 μM).

For orientation: IC50 means the concentration at which inhibition is half-maximal.
